Where two headings read alike, the source gives them in different places. Where only a bound is given, the exact number is not on record here.

The test system of one assay is tumors. Particulars: background b24; cited from earlier work.
The target of assay [1] is T1, COX-2 (Homo sapiens, UniProt P35354).
T1 sequence (P35354 18-604): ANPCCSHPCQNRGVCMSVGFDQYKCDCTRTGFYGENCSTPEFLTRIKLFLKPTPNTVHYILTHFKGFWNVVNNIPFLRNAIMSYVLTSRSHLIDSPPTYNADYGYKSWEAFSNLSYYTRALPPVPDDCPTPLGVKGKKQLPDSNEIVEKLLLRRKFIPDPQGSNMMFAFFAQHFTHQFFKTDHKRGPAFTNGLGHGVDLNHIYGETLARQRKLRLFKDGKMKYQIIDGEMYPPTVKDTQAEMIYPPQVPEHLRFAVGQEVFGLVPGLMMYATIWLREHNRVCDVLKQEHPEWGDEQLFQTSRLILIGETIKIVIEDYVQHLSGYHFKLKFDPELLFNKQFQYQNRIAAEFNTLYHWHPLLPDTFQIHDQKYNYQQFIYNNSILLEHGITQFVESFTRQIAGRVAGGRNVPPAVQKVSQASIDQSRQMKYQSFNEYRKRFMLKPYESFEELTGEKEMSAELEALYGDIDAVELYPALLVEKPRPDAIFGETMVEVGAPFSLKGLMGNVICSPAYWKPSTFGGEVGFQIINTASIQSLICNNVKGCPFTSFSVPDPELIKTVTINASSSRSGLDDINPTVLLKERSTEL
Particulars: background b24; cited from earlier work.

For another assay, the system named is COX-1. As to conditions: background b24; cited from earlier work.
Assay [2] deals with T1, COX-2. The assay can be described thus: TLC assay, inhibition of purified human COX-2. Further details: made in house; host or cells: insect cells (baculovirus vectors). The assay is classed as biochemical.
The next assay concerns the target T2, ovine COX-1 (Ovis aries, UniProt P05979).
T2 construct: COX-1 was purified from ram seminal vesicles obtained from Oxford Biomedical Research, Inc; tissue Oxford Biomedical Research, Inc. (Oxford, Michigan) (supplier of the tissue); host or cells: ram seminal vesicles
T2 sequence (P05979 25-600): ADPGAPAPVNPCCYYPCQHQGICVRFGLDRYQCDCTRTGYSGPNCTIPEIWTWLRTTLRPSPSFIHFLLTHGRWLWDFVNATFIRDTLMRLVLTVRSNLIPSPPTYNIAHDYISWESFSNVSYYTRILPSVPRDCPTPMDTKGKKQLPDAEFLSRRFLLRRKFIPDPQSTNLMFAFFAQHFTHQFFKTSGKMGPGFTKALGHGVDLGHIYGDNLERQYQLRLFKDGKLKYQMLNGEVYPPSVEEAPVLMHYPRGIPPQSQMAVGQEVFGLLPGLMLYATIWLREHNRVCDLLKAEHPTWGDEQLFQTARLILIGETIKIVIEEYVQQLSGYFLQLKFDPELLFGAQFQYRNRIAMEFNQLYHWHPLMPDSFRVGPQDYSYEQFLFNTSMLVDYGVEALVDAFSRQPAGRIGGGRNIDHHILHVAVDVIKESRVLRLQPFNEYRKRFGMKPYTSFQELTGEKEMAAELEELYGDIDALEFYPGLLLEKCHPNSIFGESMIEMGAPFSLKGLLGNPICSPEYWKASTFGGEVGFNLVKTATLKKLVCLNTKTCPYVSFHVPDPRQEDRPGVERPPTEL
Briefly: TLC assay, inhibition of purified ovine COX-1. The class given is biochemical. As to conditions: ovine COX-1 (44 nM), inhibitor 20 min, then 1-14C-AA (50 μM) at 37° C. for 30 sec, duplicate.

Assay [3] relates to HCA-7 (human colon adenocarcinoma, colony 29) cells. The assay can be described thus: Human tumor xenograft assay in nude mice. The assay is classed as in vivo. As to conditions: HCA-7, 5 mg/kg intraperitoneally 3 times per week. The method, then: Tumor volume was determined by external measurement with an electronic caliper.
(In xenograft studies the graft and the host belong to different species.)

Assay [4] concerns carrageenan-induced rat foot pad edema. The assay can be described thus: Rat foot pad edema model (carrageenan). The class given is in vivo. As to conditions: 2 mg/kg orally.
Description: Rats were injected with carrageenan, which triggers a rapid edema (swelling) within 3 hours that can be quantitatively measured by volume displacement.
In these experiments, the carrageenan that was injected was in 0.1 mL of aqueous saline so that 0.1 mL volume increase was due to the injection alone.
More specifically, male Sprague-Dawley rats (150 g) received a subplantar injection of carrageenan (0.1 mL of a 1% suspension of carrageenan in sterile aqueous saline) into the right hind footpad while mildly anesthetized with methoxyflurane. […] The ipsilateral footpad volume (mL) was measured with a water displacement plethysmometer at time=3 hours post-injection and compared to the time=0 pre-injection paw volume for edema calculations.

For the molecule `CC1=C(CC(=O)O)c2cc(F)ccc2/C1=C\c1ccc(S(C)(=O)=O)cc1` [sulindac sulfone], the “inhibition of tumors (in words)” value in the assay on tumors is “exhibits inhibition of tumors”. In addition, on COX-2 [1], the “COX-2 inhibition (in words)” value is “does not inhibit”. For the same molecule, in the assay with COX-1, the “COX-1 inhibition (in words)” value was “does not inhibit”.

As for `COc1ccc2c(c1)c(CC(=O)Nc1cccnc1)c(C)n2C(=O)c1ccc(Cl)cc1` [Compound 20, Indomethacin-N-(3-pyridyl) amide], the “COX-2 inhibition (in words)” value on COX-2 [2] is “potent and selective COX-2 inhibition”.

Consider `COc1ccc2c(c1)c(CC(=O)N(C)CCc1ccccc1)c(C)n2C(=O)c1ccc(Cl)cc1` [Compound 9, lndomethacin-N-methylphenethyl amide], for which the half-inhibitory concentration (IC50) (commonly the concentration that gives 50% inhibition) at ovine COX-1 was above 66 µM.

Consider “Indomethacin-N-(2-phenethyl) amide [Compound 11]”, for which the “tumor growth (in words)” value in assay [3] was “significantly inhibited tumor growth”. In addition, the “tumor vol. cm^3” value in assay [3] (day of explant 22) is listed as 0.10 cm^3; in assay [3] (day of explant 25) it was 0.11 cm^3; in assay [3] (day of explant 27), 0.13 cm^3; in assay [3] (day of explant 29) it was 0.14 cm^3; in assay [3] (day of explant 31) it was 0.17 cm^3.

At COX-2 [2] (human COX-2 (66 nM), inhibitor 20 min, then 1-14C-AA (50 μM) at 37° C. for 30 sec, duplicate), “Indomethacin-N-2-(2-L-methoxycarbonylethyl) amide [Compound 25]” gave an IC50 of 0.4 µM.

For the molecule `COc1ccc2c(c1)c(CC(=O)O)c(C)n2C(=O)c1ccc(Cl)cc1` [Indomethacin, indomethacin, reference compound], the “effect on swelling / inflammation (in words)” value in assay [4] is “comparable reduction in inflammation”.

As for `COc1ccc2c(c1)c(CC(=O)Nc1ccc(NC(C)=O)cc1)c(C)n2C(=O)c1ccc(Cl)cc1` [Compound 14, Indomethacin-N-(4-acetamidophenyl) amide], the “effect on swelling / inflammation (in words)” value in assay [4] was “dramatic decrease in swelling”.

For the molecule `CSc1ccc(/C=C2/C(C)=C(CC(=O)O)c3cc(F)ccc32)cc1` [sulindac sulfide], the “inhibition of tumors (in words)” value in the assay with tumors is recorded as “exhibits inhibition of tumors”. Moreover, in the assay on COX-1, the “more potent inhibitor against COX-1 than COX-2” value is reported as 40 fold.

(Values after patent US6399647B2, “Amide derivatives for antiangiogenic and/or antitumorigenic use” (Vanderbilt University, priority 1999, dated 2002).)
